Measured values published in patent EP4624463A1, “SPIRO DERIVATIVE AS KIF18A INHIBITOR” (Insilico Medicine IP Limited, priority 2022, dated 2024).

Target: T1, KIF18A (Homo sapiens, UniProt Q8NI77)
T1 sequence (Q8NI77 1-898): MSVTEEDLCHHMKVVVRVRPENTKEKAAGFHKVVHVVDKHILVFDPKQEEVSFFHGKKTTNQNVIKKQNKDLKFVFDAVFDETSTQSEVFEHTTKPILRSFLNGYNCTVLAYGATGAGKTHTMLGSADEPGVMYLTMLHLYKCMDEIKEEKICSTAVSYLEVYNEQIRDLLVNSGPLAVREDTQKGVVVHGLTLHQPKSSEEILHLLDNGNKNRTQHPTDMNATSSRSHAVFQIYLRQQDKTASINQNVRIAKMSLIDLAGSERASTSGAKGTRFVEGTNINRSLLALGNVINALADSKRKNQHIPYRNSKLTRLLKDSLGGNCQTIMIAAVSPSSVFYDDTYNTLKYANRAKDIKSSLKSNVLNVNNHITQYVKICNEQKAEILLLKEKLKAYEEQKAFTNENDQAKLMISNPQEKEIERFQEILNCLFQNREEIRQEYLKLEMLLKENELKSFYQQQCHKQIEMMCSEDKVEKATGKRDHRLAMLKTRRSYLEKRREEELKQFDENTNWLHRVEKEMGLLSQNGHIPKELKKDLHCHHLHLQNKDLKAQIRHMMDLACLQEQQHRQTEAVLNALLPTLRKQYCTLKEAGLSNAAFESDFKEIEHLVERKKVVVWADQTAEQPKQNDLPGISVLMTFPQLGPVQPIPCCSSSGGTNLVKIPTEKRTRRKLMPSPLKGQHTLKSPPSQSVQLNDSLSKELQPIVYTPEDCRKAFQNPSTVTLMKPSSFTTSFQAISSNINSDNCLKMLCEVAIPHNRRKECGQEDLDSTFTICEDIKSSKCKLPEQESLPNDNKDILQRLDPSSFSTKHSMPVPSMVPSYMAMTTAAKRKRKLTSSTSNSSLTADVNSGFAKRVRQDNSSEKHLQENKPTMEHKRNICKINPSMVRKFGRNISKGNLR
Test: KIF18A enzyme inhibition activity assay (ADP-Glo)
Format: biochemical
Conditions: ADP-Glo kit, porcine tubulin, ATP; 10 concentration points, 3-fold serial dilution; 25°C
Protocol: Embodiment 6: Biological example: KIF18A enzyme inhibition activity assay
2) Steps: • 2.1 Preparation of enzyme protein buffer solution • 2.2 Activity screening • a) 40 µL of compound solution was added to a 384-well dilution plate; • b) A 3-fold serial dilution was performed to obtain 10 concentration points; • c) 0.1 µL of compound solution was transferred into a 384-well plate; • d) 5 µL of enzyme reaction solution was added and centrifuged at 1,000 RPM for 1 minute; • e) The reaction took place at 25°C for 15 minutes; • f) 5 µL of ATP reaction solution was added; • g) The reaction took place at 25°C for 60 minutes; • h) 10 µL of ADP-Glo reagent was added and centrifuged at 1,000 RPM for 1 minute; • i) The reaction took place at 25°C for 60 minutes; • j) 20 µL of detection reagent was added and centrifuged at 1,000 RPM for 1 minute; • k) The reaction took place at 25°C for 60 minutes; • l) The Envision 2104 plate reader was used to measure […]. 3) Data analysis • 3.1 Fluorescence signal values were obtained from the readings of each well • 3.2 Calculation of IC50 Concentration-response curve fitting and IC50 determination were performed using GraphPad Prism software with a four-parameter logistic regression model.

Row | Compound | IC50 [nM]
1 | C[C@@H]1CN(c2cccc(N3CC4(CCC5(CC5)CC4)c4cc(NS(=O)(=O)CCO)ccc4C3=O)n2)CCO1 [EX04, 2-Hydroxy-N-(2-{6-[(2R)-2-methyl-1,4-oxazinane-4-yl]pyridin-2-yl}-1-oxo-2,3-dihydro-1H-spiro[isoquinoline-4,6'-spiro[2.5]octane]-6-yl)ethanesulfonamide] | 107
2 | O=C1c2ccc(NS(=O)(=O)CCO)cc2C2(CCC3(CC3)CC2)CN1c1ccc(=O)n(C2CC(F)(F)C2)n1 [EX05, N-{2-[1-(3,3-Difluorocyclobutyl)-6-oxo-1,2-diazacyclohexanecarbonate-3-yl]-1-oxo-2,3-dihydro-1H-spiro[isoquinoline-4,6'-spiro[2.5]octane]-6-yl}-2-hydroxyethanesulfonamide] | 8.2
3 | Cc1cc(N2CC3(CCC(C)(C)CC3)c3cc(NS(=O)(=O)CCO)ccc3C2=O)nc(N2CCC(F)(F)CC2)n1 [EX03, N-{2'-[2-(4,4-difluorohexahydropyridin-1-yl)-6-methylpyrimidin-4-yl]-1,1-dimethyl-1'-oxo-2',3'-dihydro-1'H-spiro[cyclohexane-4,4'-isoquinoline]-6'-yl}-2-hydroxyethanesulfonamide] | 44
4 | O=C1c2ccc(NS(=O)(=O)CCO)cc2C2(CCCCC2)CN1c1cccc(N2CCOCC2)n1 [EX01, 2-Hydroxy-N-{2'-[6-(1,4-oxazinane-4-yl)pyridin-2-yl]-1'-oxo-2',3'-dihydro-1'H-spiro[cyclohexane-1,4'-isoquinoline]-6'-yl} ethanesulfonamide] | 2030
5 | Cc1cc(N2CC3(CCC4(CC4)CC3)c3cc(NS(=O)(=O)CCO)ccc3C2=O)nc(N2CCC(F)(F)CC2)n1 [EX02, N-{2-[2-(4,4-Difluorohexahydropyridin-1-yl)-6-methylpyrimidin-4-yl]-1-oxo-2,3-dihydro-1H-spiro[isoquinoline-4,6'-spiro[2.5]octane]-6-yl}-2-hydroxyethanesulfonamide] | 38
